Results reported in patent US8466147B2, “Use of reversine and analogs for treatment of cancer” (Dana-Farber Cancer Institute, Inc., priority 2006, dated 2013).

Key:
MM cells [1] = experiment: Anti-MM activity of reversine analog; assay type: cell-based; details: FIG. 14
Experimental: MTT cell survival assay. Viability of cells treated with reversine, alone or combined with other agents, was assessed by measuring 3-(4,5-dimethylthiazol-2-yl)-2,5-diphenyl tetrasodium bromide (MTT, Chemicon International, Temecula, Calif.) dye absorbance. Cells were pulsed with 1:10 the culture volume of 5 mg/ml MTT to each well for the last 4 hrs of 72 hr cultures, followed by 1.5-3 fold the culture volume of isopropanol containing 0.04N HCl. Absorbance was measured at 570/630 nm using a spectrophotometer (Molecular Devices Corp., Sunnyvale Calif.). Recombinant human IL-6 and IGF (R&D Systems; Minneapolis, Minn.) was used at 10 ng/mL and 50 ng/mL respectively, as indicated. For testing normal PBMCs, healthy donor blood was collected using heparinized tubes, separated by Ficoll (Amersham Biosciences; Sweden) gradient separation and plated at 150,000 cells per well and pre-stimulated, as indicated, with 5 ng/mL PHA (Sigma) for 24 hrs.

[2] = tested on: tumor cell lines, including myeloma, leukemia, lymphoma and thyroid
Description: Cell lines. ARD, ARH-77, ARK, ARO, ARP-1, BHT101, BHP-10-3, BHP-14-9, BHP-17-10, BHP-18-17, BHP-19-24, BHP2-7, BHP-5, BHP-7, DHL-4, DHL-6, DHL-7, DHL-8, DHL-10, Dox6, EJM, FRO, IM9, INA-6, JJN3, KAT-4, KAT-4B, KAT4C, KAT18, KMS-1, KMS-11, KMS-12BM, KMS-18, KMS-20, KMS-26, KMS-28-BM, KMS-28-PE, KMS-34, KMS-5, L363, LPCL-HO, LRS, MM-AS, MEG-01, MM144, MM-1R, MM-1S, MM1S-Akt, MMSV, Namalwa, NCI-H929, NOP2, NPA, OCI MY1, OCI-MY5, OCI-My7, OPM-1, OPM-2, OPM-6, RPMI8226, S6B45, SKMM2, SW579, SW1736, THLE-3, TK PCL, TT, U266, WM-WSU, WRO, XG1, and ZR-75-1 were grown in either Dulbecco's modified Eagle's medium (DMEM) (BioWhittaker, Walkersville, Md.) or Roswell Park Memorial Institute medium (RPMI) (BioWhittaker) with 100 U/ml penicillin, 100 μg/ml streptomycin and 10% fetal calf serum (FCS) (GIBCO/BRL, Gaithersburg, Md.), unless stated otherwise.
(§1) MTT cell survival assay. Viability of cells treated with reversine, alone or combined with other agents, was assessed by measuring 3-(4,5-dimethylthiazol-2-yl)-2,5-diphenyl […] bromide (MTT, Chemicon International, Temecula, Calif.) dye absorbance. Cells were pulsed with 1:10 the culture volume of 5 mg/ml MTT to each well for the last 4 hrs of 72 hr cultures, followed by 1.5-3 fold the culture volume of isopropanol containing 0.04N HCl. Absorbance was measured at 570/630 nm using a spectrophotometer (Molecular Devices Corp., Sunnyvale Calif.). Recombinant human IL-6 and IGF (R&D Systems; Minneapolis, Minn.) was used at 10 ng/mL and 50 ng/mL respectively, as indicated. For testing normal PBMCs, healthy donor blood was collected using heparinized tubes, separated by Ficoll (Amersham Biosciences; Sweden) gradient separation and plated at 150,000 cells per well and pre-stimulated, as indicated, with 5 ng/mL PHA (Sigma) for 24 hrs.

MM cells [3] = details: combined with dexamethasone (5 nM)
Experimental: as §1

MM.1S tumor cell line = tested on: MM.1S tumor cell line
Experimental: as §1

hepatocytes = details: 1 microM, in vitro
Experimental: as §1

[4] = tested on: peripheral blood mononuclear cells (PBMCs)
Experimental: as §1

[5] = tested on: primary myeloma tumor specimens from heavily pre-treated patients
Experimental: as §1

stromal cells = details: 1 microM, in vitro
Experimental: as §1

MM cell lines = details: reversine 1 μM, washout, then drug-free medium
Experimental: Cell death commitment assay. The minimum time length of exposure to reversine that is required to commit MM cells to apoptosis was evaluated by incubating cells in 24-well plates with reversine (1 μM) for 1, 2, 4, 8, 16 or 24 hours. At the end of this incubation, the cells were washed 3 times and incubated in drug-free medium for an additional 3 days, resulting in equal length of total incubation for all experimental conditions ([…]), at which point cell survival was quantified by MTT, as above, and expressed as percentage of the value obtained from respective controls.

[6] = tested on: MM cells (MM.1S, OPM-1 human tumor cells); details: 1 microM reversine
Description: Cell cycle analysis. Cell lines, treated with reversine for 0, 2, 4, 8,16, 24, and 48 hrs were stained using a solution of propidium iodide (Sigma) and RNase A following 70% EtOH fixation.

MM.1S cells = details: 1 microM reversine, 2-48 hr
Experimental: Immunoblotting analysis. Immunoblotting was performed by scrapping cells (1×10^6), centrifuged briefly and lysed for 30 min on ice in 50 mM Tris-HCl, pH 8.0, containing 120 mM NaCl and 1% Igepal, supplemented with the Complete-TM mixture of proteinase inhibitors. The samples were cleared by centrifugation (14,000 rpm, 30 min, 4° C.) and assessed for protein concentration. SDS-polyacrylamide gel electrophoresis (12%) was performed (30-50 μg of protein per lane) and the proteins were electroblotted onto PVDF membranes. After 1 hour incubation in blocking solution (5% milk in TBST), the membranes were exposed to primary antibody overnight at 4° C. Following washing in TBST, the respective secondary HRP-labeled antibody was added at 1:20,000 dilution for 1 hr at room temperature. The membrane was then washed with TBST for 45-60 min with multiple changes of the wash buffer. Following washing, the protein expression was visualized using the ECL technique. The primary antibodies used for immunoblotting were purchased from Santa Cruz Biotechnology (Santa Cruz, Calif.), Upstate Biotechnologies (Lake Placid, N.Y.) or Cell Signaling (Beverly, Mass.). Secondary antibodies were purchased from (Jackson ImmunoResearch West Grove, Pa.).

various kinases = details: 500 nM
Experimental: In vitro activity against kinases. Kinase activity was screened using 500 nM of reversine (in 1% DMSO) and ATP using the Invitrogen Z′-LYTE™ kinase assay platform (Invitrogen). In summary, in first reaction the kinase transfers the gamma-phosphate of ATP to a single tyrosine, serine or threonine residue in a synthetic FRET-peptide. In the secondary reaction, a site-specific protease recognizes and cleaves non-phosphorylated FRET-peptides. To calculate kinase activity, the ratio of donor emission to acceptor emission after excitation of the fluorophore at 400 nm was compared.

various phosphatases = details: 500 nM
Experimental: In vitro activity against phosphatases. In vitro phosphatase activity was screened at 500 nM reversine using the DiFMUP technology (Molecular Probes). Briefly, 6,8-difluoro-4-methylumbelliferyl phosphate substrate is combined with ATP and drug. The removal of the phosphate group on 6,8-difluoro-4-methylumbelliferyl yields a more fluorescent version of the substrate than the non-hydrolyzed form. The amount of fluorescent signal directly corresponds to the level of phosphatase activity.

[7] = tested on: GFP-luc expressing MM.1R cells; details: 72 hrs, luciferase readout
Experimental: (§2) Activity against myeloma cells in co-culture with bone marrow stromal cells. Co-culture Stromal cells were plated at a density of 10,000 cells per well in optical 96-well plates and were incubated for 24 hrs to allow for attachment. Tumor cell lines stably expressing luciferase were plated at 1500 cells per well. Cells were treated immediately following plating and incubated for 72 hrs. Luciferin substrate was added to cultures, mixed, and incubated at room temperature. Samples were read using a Luminoskan luminometer (Labsystems, Ramsey, Minn.).

[8] = tested on: GFP-luc expressing MM.1S cells; details: 72 hrs, luciferase readout
Experimental: as §2

MR20 myeloma cells = details: 72 hours
Experimental: Treatment of reversine in the Side Populations of MR20 myeloma cells. MR20 cells were plated at a density of 1×10*5 cells/mL in RPMI media supplemented with Pen/Strep and 10% FBS. Reversine was added to the cells at a range of concentrations, the cells were then incubated for 72 hrs at 37 degrees C. Following the incubation period, the cells were collected and stained with Hoescht, and counter stained with 7-AAD. Reserpine, a inhibitor of the membrane transporter, was added to a sample of control cells to identify the “side population” cells (control). The samples were then analyzed on a BD FACS Aria with a UV laser to excite the Hoescht stain. The samples were first gated on the cellular fraction (by forward and side scatter), then on the viable cells (7-AAD negative), then on the Hoescht-Blue negative Hoescht-Red negative fraction representing the Side Population.

chicken B-cell line DT40 = details: FIG. 13
OPM2 cells = details: oral gavage, 1 mg/kg twice weekly
Description: Anti-myeloma activity in animals. […] Briefly, male (6 to 8-week old) SCID/Beige mice, housed and monitored in the Animal Research Facility of the Dana-Farber Cancer Institute, were irradiated (300 rads) using Cs^137 gamma-irradiator source, and received (24 hrs post-irradiation) tail i.v. injections of 10^6 OPM2 cells suspended in total volume of 200 microL of phosphate buffered saline (PBS) per mouse. Mice were monitored for changes in body weight and signs of infection or paralysis. In accordance with institutional guidelines, mice were sacrificed by CO2 inhalation in the event of paralysis or major compromise in their quality of life. All experimental procedures and protocols had been approved by the Animal Care and Use Committee of the Dana-Farber Cancer Institute. Overall survival (defined as time between i.v. injection of tumor cells and sacrifice or death) was compared in control vs. 1 mg/mg reversine-treated (P.O. twice weekly) mice by Kaplan-Meier method.

**Q.** For `c1nc2nc(NC3CCCCC3)nc(Nc3ccc(N4CCOCC4)cc3)c2[nH]1` [retreversine], which “anti-MM activity in comparison with reversine” value (MM cells [1]) is on record?
**A.** Its value is “reduced activity”.

**Q.** With `c1nc2nc(Nc3ccc(N4CCOCC4)cc3)nc(NC3CCCCC3)c2[nH]1` [reversine, 2-(4-morpholinoanilino)-6-cyclohexylaminopurine] as the compound, how does the “concentration with significant anti-tumor activity” value ([2]; in many cases) read?
**A.** The value was at most 1 µM.

**Q.** And the “anti-tumor effects in tumor cell lines” value ([2]; myeloma, leukemia, lymphoma and thyroid lines, FIG. 1)?
**A.** The value was “anti-tumor effects in a broad range of tumor cell lines”.

**Q.** And the “anti-tumor effect, potency in words” value ([2]; subset of MM cell lines)?
**A.** Its value is “sub-micro molar anti-tumor effect”.

**Q.** And the survival rate ([2]; wide variety of tumor cell lines, reversine between 1 and 10 μM, 72 hour exposure)?
**A.** The survival rate was 0%.

**Q.** What about the “anti-MM activity of combination” value (MM cells [3]) of the same compound?
**A.** The value was “greater than additive”.

**Q.** And the “difference in normalized effect with versus without cytokines” value (MM.1S tumor cell line; 10 μM reversine)?
**A.** Its value is “virtually no difference”.

**Q.** And the tumor cell viability (MM.1S tumor cell line; presence or absence of cytokines (IL-6, IGF))?
**A.** Its tumor cell viability is “dose dependent decrease in tumor cell viability”.

**Q.** What about the toxicity to hepatocytes (hepatocytes) of the same compound?
**A.** The toxicity to hepatocytes was “minimal toxicity”.

**Q.** And the “toxicity to PBMCs stimulated with phytohaemagglutinin” value ([4]; PHA-stimulated, in vitro)?
**A.** The value was “limited toxicity”.

**Q.** What about the “toxicity to PBMCs” value ([4]; unstimulated, doses as high as 10 microM) of the same compound?
**A.** The value was “does not cause major toxicity”.

**Q.** What about the “dose with anti-MM activity” value [5] of the same compound?
**A.** The value was at most 1 µM.

**Q.** And the “toxicity to stromal cells” value (stromal cells)?
**A.** The value was “minimal toxicity”.

**Q.** What about the “treatment time that commits cells to death” value (MM cell lines) of the same compound?
**A.** The value was “less than 24 hrs”.

**Q.** And the “exposure time after which the sub-G0 fraction increases” value [6]?
**A.** Its value is “more than 16 hr”.

**Q.** And the “time of G2 arrest after initial exposure” value [6]?
**A.** The value was 8 to 16 h.

**Q.** What about the “B-raf and Akt levels” value (MM.1S cells) of the same compound?
**A.** Its value is “inhibition of B-raf and Akt levels”.

**Q.** And the “apoptosis markers (caspase 3, PARP)” value (MM.1S cells)?
**A.** Its value is “cleavge of caspase 3 and PARP”.

**Q.** What about the “effect on chaperone proteins Hsp70 and Hsp90” value (MM.1S cells) of the same compound?
**A.** The value was “minimal affects”.

**Q.** What about the “phospho-specific proteins (phospho-Akt, phospho-MEK, phospho-MAPK, phospho-IKB, phospho-p70S6K)” value (MM.1S cells; no increase in total protein levels) of the same compound?
**A.** The value was “increased levels”.

**Q.** What about the “inhibition of kinase activity” value (various kinases) of the same compound?
**A.** The value was “inhibition of kinase activity was observed”.

**Q.** And the “inhibition of phosphatase activity” value (various phosphatases)?
**A.** The value was “inhibition of phosphatase activity was not seen”.

**Q.** And the “sensitivity in co-culture with bone marrow stromal cells” value [7]?
**A.** Its value is “increased”.

**Q.** And the “sensitivity in co-culture with bone marrow stromal cells” value [8]?
**A.** The value was “increased”.

**Q.** What about the “sensitivity of side population (SP) cells versus main population” value (MR20 myeloma cells) of the same compound?
**A.** Its value is “more sensitive than the main population”.

**Q.** And the “percentage of SP cells” value (MR20 myeloma cells; increasing concentrations)?
**A.** The value was “decreased with increasing doses”.

**Q.** And the “sensitivity of syk-expressing versus syk-/- DT40 cells” value (chicken B-cell line DT40)?
**A.** The value was “more sensitive”.

**Q.** And the “survival compared to control mice” value (OPM2 cells)?
**A.** The value was “Survival was extended”.
